Assay results: PMC6272903, “Synthesis and Structure-Activity Relationship Analysis of 5-HT7 Receptor Antagonists: Piperazin-1-yl Substituted Unfused Heterobiaryls” (Molecules, 2016)

What follows are compounds tested against T1, human 5-HT7b receptors (Homo sapiens, UniProt P34969) (assay: 5-HT7 competition radioligand binding assay ([3H]5-CT)). Conditions: HEK293 cells overexpressing human 5-HT7b receptors, at least two independent experiments in triplicate.
T1 construct: expressed in transfected cells; host or cells: HEK293
Procedure: Novel scaffold endowed with 5-HT7R activity was identified by screening of the in-house compound library in a single compound concentration of 1 µM in a competition radioligand binding assay using [^3H]5-CT and HEK293 cells overexpressing the human 5-HT7b receptors.

T1 sequence (P34969 1-432): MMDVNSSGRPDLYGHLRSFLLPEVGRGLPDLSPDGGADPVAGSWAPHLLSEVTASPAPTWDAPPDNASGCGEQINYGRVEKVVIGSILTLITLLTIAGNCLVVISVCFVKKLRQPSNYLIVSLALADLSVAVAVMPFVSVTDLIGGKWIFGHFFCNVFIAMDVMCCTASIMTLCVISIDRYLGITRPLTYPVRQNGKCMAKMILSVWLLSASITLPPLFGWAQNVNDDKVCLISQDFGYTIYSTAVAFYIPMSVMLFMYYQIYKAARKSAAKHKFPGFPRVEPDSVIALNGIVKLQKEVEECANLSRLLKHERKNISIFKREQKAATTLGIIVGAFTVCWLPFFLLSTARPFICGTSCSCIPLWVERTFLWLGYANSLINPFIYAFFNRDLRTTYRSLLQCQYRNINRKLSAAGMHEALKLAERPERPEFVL

Ki ± S.D. 5-HT7 binding affinity | SMILES
no affinity | c1cc(-c2ccoc2)nc(N2CCCCC2)n1 [Compound 43, 4-(3-Furyl)-2-(piperidin-1-yl)pyrimidine]

Same assay, conditions: HEK293 cells overexpressing human 5-HT7b receptors, at least two independent experiments in triplicate, read-out: Ki ± S.D. 5-HT7 binding affinity

SMILES | Ki [nM]
Cc1cc(-c2cccs2)cc(N2CCN(C)CC2)n1 [Compound 56, 2-Methyl-6-(4-methylpiperazin-1-yl)-4-(2-thienyl)pyridine] | 117 ± 12
Cc1cc(-c2ccsc2)cc(N2CCN(C)CC2)c1 [Compound 67, 1-Methyl-4-[3-methyl-5-(3-thienyl)phenyl]piperazine] | 47 ± 6
CN1CCN(c2cccc(-c3ccco3)c2)CC1 [Compound 63, 1-[3-(2-Furyl)phenyl]-4-methylpiperazine] | 914 ± 121
Cc1cc(-c2ccco2)cc(N2CCN(C)CC2)n1 [Compound 55, 4-(2-Furyl)-2-methyl-6-(4-methylpiperazin-1-yl)pyridine] | 139 ± 22
CN1CCN(c2cc(-c3cccs3)ccn2)CC1 [Compound 53, 2-(4-Methylpiperazin-1-yl)-4-(2-thienyl)pyridine] | 396 ± 55
CN1CCN(c2nc(-c3ccoc3)c3ccccc3n2)CC1 [Compound 48, 4-(3-Furyl)-2-(methylpiperazin-1-yl)quinazoline] | 1910 ± 235
CCCCc1cc(-c2ccsc2)cc(N2CCN(C)CC2)c1 [Compound 68, 1-[3-n-Butyl-5-(3-thienyl)phenyl]-4-methylpiperazine] | 263 ± 19
CCCCc1cc(-c2cccs2)cc(N2CCN(C)CC2)c1 [Compound 71, 1-[3-n-Butyl-5-(2-thienyl)phenyl]-4-methylpiperazine] | 734 ± 59
CCCCc1cc(-c2ccoc2)cc(N2CCN(C)CC2)c1 [Compound 62, 1-[3-n-Butyl-5-(3-furyl)phenyl]-4-methylpiperazine] | 106 ± 9
CN1CCN(c2nc(C#CC3=CCCCC3)cc(-c3ccoc3)n2)CC1 [Compound 17, 4-(Cyclohexenylethynyl)-6-(3-furyl)-2-(4-methylpiperazin-1-yl)pyrimidine] | 18 ± 3
CCOC(=O)CCCCCN1CCN(c2nccc(-c3ccoc3)n2)CC1 [Compound 10] | 1.4 ± 0.3
c1ccc(CCCN2CCN(c3nccc(-c4ccoc4)n3)CC2)cc1 [Compound 7] | 1.6 ± 0.2
CCOC(=O)CCN1CCN(c2nccc(-c3ccoc3)n2)CC1 [Compound 9, Ethyl 3-{4-{[4-(3-furyl)pyrimidin-2-yl]piperazin-1-yl}}propanoate] | 8.9 ± 2.1
OCCN1CCN(c2nccc(-c3ccoc3)n2)CC1 [Compound 8, 2-[4-(2-Hydroxyethyl)piperazin-1-yl]-4-(3-furyl)pyrimidine] | 8.5 ± 1.1
Cc1cc(-c2ccco2)cc(N2CCN(C)CC2)c1 [Compound 64, 1-[3-(2-Furyl)-5-methylphenyl]-4-methylpiperazine] | 312 ± 25
c1ccc(CN2CCN(c3nccc(-c4ccoc4)n3)CC2)cc1 [Compound 5, 2-(4-Benzylpiperazin-1-yl)-4-(3-furyl)pyrimidine] | 25 ± 3
c1cc(-c2ccoc2)nc(NCCN2CCOCC2)n1 [Compound 45, 4-(3-Furyl)-N-[2-(morpholin-4-yl)ethyl]pyrimidin-2-amine] | 2460 ± 343
CN1CCN(c2cccc(-c3ccsc3)n2)CC1 [Compound 58, 2-(4-Methylpiperazin-1-yl)-6-(3-thienyl)pyridine] | 79 ± 14

SMILES | Ki [nM]
c1cc(-c2ccoc2)nc(N2CCNCC2)n1 [Compound 1, 4-(3-Furyl)-2-(piperazin-1-yl)pyrimidine] | 9 ± 2
c1cc(-c2ccoc2)nc(N2CCCCC2)n1 [Compound 43, 4-(3-Furyl)-2-(piperidin-1-yl)pyrimidine] | > 10000
CCCCc1cc(-c2ccco2)nc(N2CCN(C)CC2)n1 [Compound 28, 4-n-Butyl-6-(2-furyl)-2-(4-methylpiperazin-1-yl)pyrimidine] | 450 ± 63
CCCCc1nc(N2CCN(C)CC2)nc(-c2ccoc2)c1CCC [Compound 22, 4-n-Butyl-6-(3-furyl)-2-(4-methylpiperazino)-5-propylpyrimidine] | 1250 ± 116
CN1CCN(c2nc(-c3ccoc3)cc(-c3ccoc3)n2)CC1 [Compound 18, 4,6-Bis(3-furyl)-2-(4-methylpiperazin-1-yl)pyrimidine] | 22 ± 2
c1cc(-c2ccoc2)nc(NCCCc2ncc[nH]2)n1 [Compound 46, 4-(3-Furyl)-N-[3-(1H-imidazol-2-yl)propyl]pyrimidin-2-amine] | 1280 ± 187
Cc1cc(-c2cccs2)cc(N2CCN(C)CC2)c1 [Compound 70, 1-Methyl-4-[3-methyl-5-(2-thienyl)phenyl]piperazine] | 297 ± 42
O=C(c1ccccc1)N1CCN(c2nccc(-c3ccoc3)n2)CC1 [Compound 6, 2-(4-Benzoylpiperazin-1-yl)-4-(3-furyl)pyrimidine] | 1400 ± 173
CN1CCN(c2nccc(-n3ccnc3)n2)CC1 [Compound 41, (1H-Imidazol-1-yl)-2-(4-methylpiperazin-1-yl)pyrimidine] | 1980 ± 275
CN1CCN(c2cccc(-c3ccoc3)c2)CC1 [Compound 60, 1-[3-(3-Furyl)phenyl]-4-methylpiperazine] | 31 ± 4
CN1CCN(c2cccc(-c3ccco3)n2)CC1 [Compound 59, 2-(2-Furyl)-6-(4-methylpiperazin-1-yl)pyridine] | 1140 ± 154
CCCCc1cc(-c2ccco2)cc(N2CCN(C)CC2)c1 [Compound 65, 1-[3-n-Butyl-5-(2-furyl)phenyl]-4-methylpiperazine] | 743 ± 66
CN1CCN(c2nc(N3CCN(C)CC3)c3ccccc3n2)CC1 [Compound 49, 2,4-bis(4-Methylpiperazin-1-yl)quinazoline] | 7540 ± 1140
CN1CCN(c2cccc(-c3ccsc3)c2)CC1 [Compound 66, 1-Methyl-4-[3-(3-thienyl)phenyl]piperazine] | 342 ± 51
CN1CCN(c2cccc(-c3cccs3)c2)CC1 [Compound 69, 1-Methyl-4-[3-(2-thienyl)phenyl]piperazine] | 542 ± 66
CN1CCN(c2cc(-c3ccco3)ccn2)CC1 [Compound 52, 4-(2-Furyl)-2-(4-methylpiperazin-1-yl)pyridine] | 307 ± 42
CN(C)CCc1nc(N2CCN(C)CC2)nc2ccccc12 [Compound 50] | > 10000

Now from value to compound:

Ki [nM] | SMILES
17 ± 2 | CN1CCN(c2cc(-c3ccoc3)ccn2)CC1 [Compound 51, 4-(3-Furyl)-2-(4-methylpiperazin-1-yl)pyridine]
1330 ± 232 | CCCc1cnc(N2CCN(C)CC2)nc1-c1ccoc1 [Compound 21, 4-(3-Furyl)-2-(4-methylpiperazino)-5-propylpyrimidine]
83 ± 9 | CN1CCN(c2nccc(-c3ccsc3)n2)CC1 [Compound 30, 2-(Methylpiperazin-1-yl)-4-(3-thienyl)pyrimidine]
10 ± 1 | CCN1CCN(c2nccc(-c3ccoc3)n2)CC1 [Compound 3, 2-(4-Ethylpiperazin-1-yl)-4-(3-furyl)pyrimidine]
1920 ± 373 | Cc1occc1-c1ccnc(N2CCN(C)CC2)n1 [Compound 23, 4-(2-Methyl-3-furyl)-2-(4-methylpiperazin-1-yl)pyrimidine]
5.3 ± 0.9 | CCCN1CCN(c2nccc(-c3ccoc3)n2)CC1 [Compound 4, 4-(3-Furyl)-2-(4-propylpiperazin-1-yl)pyrimidine]
12 ± 2 | CCCCCCc1cc(-c2coc(C)c2)nc(N2CCN(C)CC2)n1 [Compound 25, 4-n-Hexyl-6-(5-methyl-3-furyl)-2-(4-methylpiperazin-1-yl)pyrimidine]
> 10000 | CN1CCN(c2nc(-c3ccoc3)cc(N(C)C)n2)CC1 [Compound 19, 4-Dimethylamino-6-(3-furyl)-2-(4-methylpiperazin-1-yl)pyrimidine]
7460 ± 1230 | CN1CCN(c2nccc(-c3cc4ccccc4o3)n2)CC1 [Compound 36, 4-(Benzofuran-2-yl)-2-(4-methylpiperazin-1-yl)pyrimidine]
8.3 ± 1.7 | CN1CCN(c2nc(-c3ccoc3)cc(C(F)(F)F)n2)CC1 [Compound 16, 4-(3-Furyl)-2-(4-methylpiperazin-1-yl)-6-(trifluoromethyl)pyrimidine]
> 10000 | CN1CCN(c2nccc(-c3ccc(O)cc3)n2)CC1 [Compound 35, 4-(4-Hydroxyphenyl)-2-(4-methylpiperazin-1-yl)pyrimidine]
> 10000 | CN1CCN(c2nccc(-c3ccccc3O)n2)CC1 [Compound 33, 4-(2-Hydroxyphenyl)-2-(4-methylpiperazin-1-yl)pyrimidine]
148 ± 17 | CN1CCCN(c2nccc(-c3ccoc3)n2)CC1 [Compound 42, 4-(3-Furyl)-2-(4-methylhomopiperazin-1-yl)pyrimidine]
4230 ± 680 | Cc1ccc(-c2ccnc(N3CCN(C)CC3)n2)o1 [Compound 29, 4-(5-Methyl-2-furyl)-2-(4-methylpiperazin-1-yl)pyrimidine]
462 ± 54 | Cc1cc(-c2ccnc(N3CCN(C)CC3)n2)co1 [Compound 24, 4-(5-Methyl-3-furyl)-2-(4-methylpiperazin-1-yl)pyrimidine]
7.2 ± 1.4 | CN1CCN(c2nccc(-c3ccoc3)n2)CC1 [Compound 2, 4-(3-Furyl)-2-(4-methylpiperazin-1-yl)pyrimidine]
780 ± 94 | CN1CCN(c2nccc(-c3cccnc3)n2)CC1 [Compound 39, 2-(4-Methylpiperazin-1-yl)-4-(pyridin-3-yl)pyrimidine]
5280 ± 820 | CN1CCN(c2nccc(-c3cc4ccccc4s3)n2)CC1 [Compound 37, 4-(Benzothiophen-2-yl)-2-(4-methylpiperazin-1-yl)pyrimidine]
480 ± 65 | CN1CCN(c2nccc(-c3cccs3)n2)CC1 [Compound 32, 2-(Methylpiperazin-1-yl)-4-(2-thienyl)pyrimidine]
3.9 ± 0.7 | Cc1cc(-c2ccoc2)nc(N2CCN(C)CC2)n1 [Compound 11, 4-(3-Furyl)-6-methyl-2-(4-methylpiperazin-1-yl)pyrimidine]
2.7 ± 0.5 | CCC(C)c1cc(-c2ccoc2)nc(N2CCN(C)CC2)n1 (stereo not drawn) [Compound 15, 4-sec-Butyl-6-(3-furyl)-2-(4-methylpiperazin-1-yl)pyrimidine]

Same assay, conditions: single compound concentration of 1 µM, HEK293 cells, read-out: inhibition in library screening

inhibition at 1 µM [%] | SMILES
> 60 | CN1CCN(c2nc(-c3ccoc3)cc(-c3ccoc3)n2)CC1 [Compound 18, 4,6-Bis(3-furyl)-2-(4-methylpiperazin-1-yl)pyrimidine]
> 60 | CN1CCN(c2nccc(-c3ccoc3)n2)CC1 [Compound 2, 4-(3-Furyl)-2-(4-methylpiperazin-1-yl)pyrimidine]
> 60 | Cc1cc(-c2ccoc2)nc(N2CCN(C)CC2)n1 [Compound 11, 4-(3-Furyl)-6-methyl-2-(4-methylpiperazin-1-yl)pyrimidine]
